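Five compound concentrations were applied to cells in 96-well plates for 48 hours; endpoints were derived by simple linear interpolation of the resulting dose-response curve. TGI: total growth inhibition.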
Columns and labels:
Test in all cases: DTP human tumour cell line panel, 48 h
SK-MEL-28 melanoma = system: SK-MEL-28 melanoma
SF-295 CNS = system: SF-295 CNS
NCI-H226 lung = system: NCI-H226 lung
SN12C renal = system: SN12C renal
OVCAR-4 ovarian = system: OVCAR-4 ovarian
HOP-92 NSCLC = system: HOP-92 NSCLC
HCT-15 colon = system: HCT-15 colon
DU-145 prostate = system: DU-145 prostate
MDA-MB-231 breast = system: MDA-MB-231 breast
SNB-75 CNS = system: SNB-75 CNS
EKVX NSCLC = system: EKVX NSCLC
MCF7 breast = system: MCF7 breast
BT-549 breast = system: BT-549 breast
T-47D breast = system: T-47D breast
HCT-116 colon = system: HCT-116 colon
SK-MEL-5 melanoma = system: SK-MEL-5 melanoma
NCI-H522 lung = system: NCI-H522 lung
TK-10 renal = system: TK-10 renal
U251 CNS = system: U251 CNS
RPMI-8226 leukemia = system: RPMI-8226 leukemia
SNB-19 CNS = system: SNB-19 CNS
MOLT-4 leukemia = system: MOLT-4 leukemia
OVCAR-5 ovarian = system: OVCAR-5 ovarian
SW-620 colon = system: SW-620 colon
COLO 205 colon = system: COLO 205 colon
HS 578T breast = system: HS 578T breast
CAKI-1 renal = system: CAKI-1 renal
MDA-N = system: MDA-N
UACC-257 melanoma = system: UACC-257 melanoma
A498 renal = system: A498 renal
ACHN renal = system: ACHN renal
OVCAR-8 ovarian = system: OVCAR-8 ovarian
HT29 colon = system: HT29 colon
HOP-62 NSCLC = system: HOP-62 NSCLC
786-0 renal = system: 786-0 renal
SF-539 CNS = system: SF-539 CNS
MALME-3M melanoma = system: MALME-3M melanoma
OVCAR-3 ovarian = system: OVCAR-3 ovarian
SF-268 CNS = system: SF-268 CNS
UO-31 renal = system: UO-31 renal
M14 melanoma = system: M14 melanoma
SK-OV-3 ovarian = system: SK-OV-3 ovarian
KM12 colon = system: KM12 colon
IGROV1 ovarian = system: IGROV1 ovarian
NCI/ADR-RES ovarian = system: NCI/ADR-RES ovarian
RXF 393 renal = system: RXF 393 renal
NCI-H460 lung = system: NCI-H460 lung
A549 NSCLC = system: A549 NSCLC
MDA-MB-435 = system: MDA-MB-435
LOX IMVI melanoma = system: LOX IMVI melanoma
UACC-62 melanoma = system: UACC-62 melanoma
SR leukemia = system: SR leukemia
K-562 leukemia = system: K-562 leukemia
HL-60(TB) leukemia = system: HL-60(TB) leukemia
SK-MEL-2 melanoma = system: SK-MEL-2 melanoma
PC-3 prostate = system: PC-3 prostate
NCI-H23 lung = system: NCI-H23 lung
HCC-2998 colon = system: HCC-2998 colon

Cc1cc(Cc2c(C)c(C)c(Cc3cc(C)cc(C(C)(C)C)c3O)c(C)c2C)c(O)c(C(C)(C)C)c1
TGI (SK-MEL-28 melanoma): > 100 µM | TGI (SF-295 CNS): > 100 µM | TGI (NCI-H226 lung): > 100 µM | TGI (SN12C renal): > 100 µM | TGI (OVCAR-4 ovarian): > 100 µM | TGI (HOP-92 NSCLC): > 100 µM | TGI (HCT-15 colon): > 100 µM | TGI (DU-145 prostate): > 100 µM | TGI (MDA-MB-231 breast): > 100 µM | TGI (SNB-75 CNS): > 100 µM | TGI (EKVX NSCLC): > 100 µM | TGI (MCF7 breast): > 100 µM | TGI (BT-549 breast): > 100 µM | TGI (T-47D breast): > 100 µM | TGI (HCT-116 colon): > 100 µM | TGI (SK-MEL-5 melanoma): > 100 µM | TGI (NCI-H522 lung): > 100 µM | TGI (TK-10 renal): > 100 µM | TGI (U251 CNS): > 100 µM | TGI (RPMI-8226 leukemia): > 100 µM | TGI (SNB-19 CNS): > 100 µM | TGI (MOLT-4 leukemia): > 100 µM | TGI (OVCAR-5 ovarian): > 100 µM | TGI (SW-620 colon): > 100 µM | TGI (COLO 205 colon): > 100 µM | TGI (HS 578T breast): > 100 µM | TGI (CAKI-1 renal): > 100 µM | TGI (MDA-N): > 100 µM | TGI (UACC-257 melanoma): > 100 µM | TGI (A498 renal): > 100 µM | TGI (ACHN renal): > 100 µM | TGI (OVCAR-8 ovarian): > 100 µM | TGI (HT29 colon): > 100 µM | TGI (HOP-62 NSCLC): > 100 µM | TGI (786-0 renal): > 100 µM | TGI (SF-539 CNS): > 100 µM | TGI (MALME-3M melanoma): > 100 µM | TGI (OVCAR-3 ovarian): > 100 µM | TGI (SF-268 CNS): > 100 µM | TGI (UO-31 renal): > 100 µM | TGI (M14 melanoma): > 100 µM | TGI (SK-OV-3 ovarian): > 100 µM | TGI (KM12 colon): > 100 µM | TGI (IGROV1 ovarian): > 100 µM | TGI (NCI/ADR-RES ovarian): > 100 µM | TGI (RXF 393 renal): > 100 µM | TGI (NCI-H460 lung): > 100 µM | TGI (A549 NSCLC): > 100 µM | TGI (MDA-MB-435): > 100 µM | TGI (LOX IMVI melanoma): > 100 µM | TGI (UACC-62 melanoma): > 100 µM | TGI (SR leukemia): > 100 µM | TGI (K-562 leukemia): > 100 µM | TGI (HL-60(TB) leukemia): 83.6 µM | TGI (SK-MEL-2 melanoma): > 100 µM | TGI (PC-3 prostate): > 100 µM

CC(=O)Oc1ccc2c3c1[C@H]1O[C@H]1c1cccc(c1-3)[C@@H]1O[C@H]21
TGI (SK-MEL-28 melanoma): 27.7 µM | TGI (SF-295 CNS): 25 µM | TGI (NCI-H226 lung): 56.8 µM | TGI (SN12C renal): 7.55 µM | TGI (OVCAR-4 ovarian): 18.6 µM | TGI (HOP-92 NSCLC): 24.9 µM | TGI (HCT-15 colon): 13.1 µM | TGI (DU-145 prostate): 20.8 µM | TGI (MDA-MB-231 breast): 31.5 µM | TGI (SNB-75 CNS): 15.7 µM | TGI (EKVX NSCLC): 36.9 µM | TGI (MCF7 breast): > 100 µM | TGI (BT-549 breast): 23.6 µM | TGI (T-47D breast): 6.79 µM | TGI (HCT-116 colon): 34.4 µM | TGI (SK-MEL-5 melanoma): 12.1 µM | TGI (NCI-H522 lung): 4.51 µM | TGI (TK-10 renal): 31.8 µM | TGI (U251 CNS): 18.9 µM | TGI (RPMI-8226 leukemia): > 100 µM | TGI (SNB-19 CNS): 30.5 µM | TGI (NCI-H23 lung): 12.7 µM | TGI (MOLT-4 leukemia): > 100 µM | TGI (OVCAR-5 ovarian): 31.8 µM | TGI (SW-620 colon): 4.59 µM | TGI (COLO 205 colon): 27.4 µM | TGI (HS 578T breast): 14.4 µM | TGI (CAKI-1 renal): 7.96 µM | TGI (MDA-N): 20.9 µM | TGI (UACC-257 melanoma): 32.9 µM | TGI (A498 renal): 33.8 µM | TGI (ACHN renal): 37.4 µM | TGI (OVCAR-8 ovarian): 9.88 µM | TGI (HT29 colon): 47.4 µM | TGI (HOP-62 NSCLC): 17.5 µM | TGI (786-0 renal): 6.01 µM | TGI (MALME-3M melanoma): 5.76 µM | TGI (OVCAR-3 ovarian): 11.8 µM | TGI (SF-268 CNS): 14.4 µM | TGI (UO-31 renal): 8.94 µM | TGI (M14 melanoma): 10.2 µM | TGI (SK-OV-3 ovarian): 27.9 µM | TGI (KM12 colon): 27.5 µM | TGI (NCI/ADR-RES ovarian): 43.5 µM | TGI (RXF 393 renal): 6.84 µM | TGI (A549 NSCLC): 22.1 µM | TGI (MDA-MB-435): 4.26 µM | TGI (LOX IMVI melanoma): 4.13 µM | TGI (UACC-62 melanoma): 20.8 µM | TGI (SR leukemia): > 100 µM | TGI (HCC-2998 colon): 25.3 µM | TGI (K-562 leukemia): > 100 µM | TGI (HL-60(TB) leukemia): 6.61 µM | TGI (SK-MEL-2 melanoma): 39.6 µM | TGI (PC-3 prostate): 32.9 µM

N/C(=N\Nc1ccc(C(=O)O)cc1)c1cnccn1
TGI (SK-MEL-28 melanoma): > 100 µM | TGI (SF-295 CNS): > 100 µM | TGI (NCI-H226 lung): > 100 µM | TGI (SN12C renal): > 100 µM | TGI (OVCAR-4 ovarian): > 100 µM | TGI (HOP-92 NSCLC): > 100 µM | TGI (HCT-15 colon): > 100 µM | TGI (DU-145 prostate): > 100 µM | TGI (MDA-MB-231 breast): > 100 µM | TGI (SNB-75 CNS): > 100 µM | TGI (EKVX NSCLC): > 100 µM | TGI (MCF7 breast): > 100 µM | TGI (BT-549 breast): > 100 µM | TGI (T-47D breast): > 100 µM | TGI (HCT-116 colon): > 100 µM | TGI (SK-MEL-5 melanoma): > 100 µM | TGI (NCI-H522 lung): > 100 µM | TGI (TK-10 renal): > 100 µM | TGI (U251 CNS): > 100 µM | TGI (RPMI-8226 leukemia): > 100 µM | TGI (SNB-19 CNS): > 100 µM | TGI (NCI-H23 lung): > 100 µM | TGI (MOLT-4 leukemia): > 100 µM | TGI (OVCAR-5 ovarian): > 100 µM | TGI (SW-620 colon): > 100 µM | TGI (COLO 205 colon): > 100 µM | TGI (HS 578T breast): > 100 µM | TGI (CAKI-1 renal): > 100 µM | TGI (MDA-N): > 100 µM | TGI (UACC-257 melanoma): > 100 µM | TGI (A498 renal): > 100 µM | TGI (ACHN renal): > 100 µM | TGI (OVCAR-8 ovarian): > 100 µM | TGI (HT29 colon): > 100 µM | TGI (HOP-62 NSCLC): > 100 µM | TGI (786-0 renal): > 100 µM | TGI (SF-539 CNS): > 100 µM | TGI (MALME-3M melanoma): > 100 µM | TGI (OVCAR-3 ovarian): > 100 µM | TGI (SF-268 CNS): > 100 µM | TGI (UO-31 renal): > 100 µM | TGI (M14 melanoma): > 100 µM | TGI (SK-OV-3 ovarian): > 100 µM | TGI (KM12 colon): > 100 µM | TGI (IGROV1 ovarian): > 100 µM | TGI (NCI/ADR-RES ovarian): > 100 µM | TGI (RXF 393 renal): > 100 µM | TGI (NCI-H460 lung): > 100 µM | TGI (A549 NSCLC): > 100 µM | TGI (MDA-MB-435): > 100 µM | TGI (LOX IMVI melanoma): > 100 µM | TGI (UACC-62 melanoma): > 100 µM | TGI (SR leukemia): > 100 µM | TGI (HCC-2998 colon): > 100 µM | TGI (K-562 leukemia): > 100 µM | TGI (HL-60(TB) leukemia): 0.166 µM | TGI (SK-MEL-2 melanoma): > 100 µM | TGI (PC-3 prostate): > 100 µM
